Laboratory results taken from patent US9086425B2, “Carbamylated proteins and risk of cardiovascular disease” (The Cleveland Clinic Foundation, priority 2007, dated 2015).

Assays:
homocitrulline levels = experiment: Effect of simvastatin on plasma levels of homocitrulline (randomized placebo-controlled study); format: in vivo, human; details: 6 weeks of treatment
Protocol: This study was intended to evaluate the effect of statin therapy on homocitrulline levels. Specimens came from archival materials from a randomized, double-blind, parallel-group, 4-arm, placebo-controlled, multi-center study conducted in 1997. Prior to randomization, subjects underwent a 4-week diet/placebo run-in period. Eligible patients were then randomized to 1 of 4 treatments (ratio 1:1:1:1): placebo, simvastatin 20, 40, or 80 mg, and received 6 weeks of treatment. One hundred and eighty eight out of 195 enrolled men and women completed the study. Subjects were required to have elevated TG (300 to 900 mg/dL), and many had comorbidities associated with the metabolic syndrome; however, though those with morbid obesity, uncontrolled hypertension, or severe hyperlipidemia were excluded. Archived serum and/or plasma that were drawn predose on Day 1 and on Day 42 were used in this analysis.

[1] = tested on: aortic smooth muscle cells (both human and bovine); experiment: Aortic smooth muscle cell proliferation; format: cell-based; details: SR-A1 inhibitor present in culture media
Source text: 1,1′-dioctadecyl-3,3,3′,3′-tetramethylyindocarbocyanine perchlorate (DiI) was obtained from Molecular Probes (Eugene, Oreg.). Organic solvents were obtained from Fisher Scientific Co. (Pittsburgh, Pa.). Caspase-3/7 assay kit (Lot #220150) was purchased from Promega (Madison, Wis.) and cell proliferation ELISA, BrdU (colorimetric) kit (Lot #11647229001) was from Roche (Indianapolis, Ind.). All other reagents and materials were obtained from Sigma Chemical Co. (St. Louis, Mo.) unless otherwise indicated. Protein content was determined by the Markwell-modified Lowry protein assay^44. Human LDL and HDL were isolated from whole blood of healthy volunteers by established methods^45. Human myeloperoxidase (MPO) (donor: hydrogen peroxide, oxidoreductase, EC 1.11.1.7), NO2-LDL and AcLDL were prepared as described in Podrez et al^14.
In a separate series of studies, we therefore examined the impact of MPO-catalyzed lipoprotein carbamylation on these processes.

scavenger receptor SR-A1 = target: T1, scavenger receptor SR-A1 (Mus musculus, UniProt P30204); experiment: Carbamylated LDL binding studies with SR-A1 transfected cells / SR-A1 inhibitor; format: cell-based, murine; details: data not shown
T1 construct: expressed in transfected cells; host or cells: CHO cells, stably transfected
T1 sequence (P30204 1-458): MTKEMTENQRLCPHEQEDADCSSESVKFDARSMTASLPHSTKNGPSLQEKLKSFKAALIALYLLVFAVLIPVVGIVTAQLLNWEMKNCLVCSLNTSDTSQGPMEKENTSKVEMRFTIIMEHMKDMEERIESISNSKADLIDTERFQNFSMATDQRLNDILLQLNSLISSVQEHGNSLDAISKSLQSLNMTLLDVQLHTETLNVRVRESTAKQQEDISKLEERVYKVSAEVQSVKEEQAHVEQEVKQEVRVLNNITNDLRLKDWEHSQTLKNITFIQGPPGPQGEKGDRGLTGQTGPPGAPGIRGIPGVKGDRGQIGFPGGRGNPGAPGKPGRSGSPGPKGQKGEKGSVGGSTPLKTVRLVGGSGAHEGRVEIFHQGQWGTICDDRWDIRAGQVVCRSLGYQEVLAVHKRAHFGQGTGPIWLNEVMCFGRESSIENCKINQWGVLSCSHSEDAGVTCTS

inhibition of specific binding of carbamylated LDL (scavenger receptor SR-A1)	Compound	Median % Change (SD) of homocitrulline (homocitrulline levels; simvastatin 20 mg, Day 42 vs predose Day 1, archived serum and/or plasma)	Median % Change (SD) of homocitrulline (homocitrulline levels; simvastatin 40 mg, Day 42 vs predose Day 1, archived serum and/or plasma)	Median % Change (SD) of homocitrulline (homocitrulline levels; simvastatin 80 mg, Day 42 vs predose Day 1, archived serum and/or plasma)	Median % Change (SD) of homocitrulline (homocitrulline levels; simvastatin combined (20, 40, 80 mg), Day 42 vs predose Day 1)	effect on proliferation induced by carbamylated LDL [1]
–	CCC(C)(C)C(=O)O[C@H]1C[C@@H](C)C=C2C=C[C@H](C)[C@H](CC[C@@H]3C[C@@H](O)CC(=O)O3)[C@H]21 [Simvastatin, simvastatin]	−100.0 (102.67) %	−100.0 (67.77) %	−63.44 (89.63) %	−100.0 (84.03) %	–
over 80%	fucoidin	–	–	–	–	markedly suppressed
